Test results taken from patent US20010012854A1, “MULTICATALYTIC PROTEASE INHIBITORS FOR USE AS ANTI-TUMOR AGENTS” (priority 1997, published 2001).
pIC50: −log10 of the molar value.

Assays:
[1] = system: human breast cancer MDA-MB-231 cells; experiment: Detachment and apoptotic nuclear changes in MDA-MB-231 cells; format: cell-based; settings: MDA-MB-231, 24 h
Method: (§1) c. Treatment of cells with MCP inhibitor. Cells were treated with a specified MCP Inhibitor, a standard anticancer agent (etoposide or cisplatin), or DMSO (vehicle). During this process, morphological changes and cellular detachment (for attached cell lines) were monitored. At each time point, cells were harvested, and used for measurement of apoptosis and other biochemical events. In Example 1, infra, involving YVAD-CMK, Compound A was first added to Jurkat T cells. This was followed immediately by dividing the cells into multiple tissue culture flasks. YVAD-CMK was then added to an indicated concentration.
(§2) d. Flow cytometry nuclear staining and DNA fragmentation assays. DNA content analysis using flow cytometry was performed as described previously (Nicoletti, I., et al. J. Immunol. Methods 139:271-279, 1992). To assay nuclear morphology, cells were washed with PBS, fixed with 70% ethanol for 1 h, and stained with Hoechst 33258 (1 mM) for 30 min. The nuclear morphology of cells was visualized by fluorescence microscope (OLYMPUS BH2). DNA fragmentation was assayed as described previously (Grant, S., et al. Cancer Res. 52:6270-6278, 1992).
Detachment was also found in at least half of human breast cancer MDA-MB-231 and MCF-7 cells, after exposure to Compound A for 24 h.

[2] = system: p21 and p27 in normal WI-38 fibroblasts; experiment: Western blot of p21 and p27 levels in normal WI-38 fibroblasts; format: cell-based, human; settings: normal WI-38, 10 μM, 22 hours
Method: (§3) e. Whole cell extracts and western blot assay. To prepare whole cell extracts, cells were washed with PBS, and homogenized in lysis buffer (50 mM Tris, pH 8.0, 5 mM EDTA, 150 mM NaCl, 0.5% Nonidet P-40, 0.5 mM PMSF and 0.5 mM dithiothreitol). Following 30 min rocking at 4° C., the lysates were centrifuged and the supernatants were collected as whole cell extracts. The protein samples were then analyzed by sodium dodecyl sulfate-6% polyacrylamide gel electrophoresis (20-60 μg protein per lane) followed by the enhanced chemiluminescence Western blot assay using specific antibodies to CPP32, PARP, p21, p27 or RB.
The accumulation of p21 and p27 following treatment with Compound A was also evaluated in SV-40 transformed and normal WI-38 fibroblasts.

[3] = system: Normal human fibroblast cell line (WI-38); experiment: Detachment, apoptotic nuclear changes and PARP cleavage in normal fibroblasts; format: cell-based
Method: as §1, §2, §3
Whether Compound A has, any selectivity in induction of apoptosis between transformed and normal cells was investigated. Normal human fibroblast cell line (WI-38) and its SV40-transformed derivative (WI-38 VA13) were utilized. […]

[4] = system: PARP, RB and caspase-3 cleavage in Jurkat T cells; experiment: Western blot of caspase-3, PARP and RB in Jurkat T cells; format: cell-based, human
Method: as §3
(§4) Example 1 was designed to determine if MCP is involved in the survival signaling pathway(s) and if inhibition of MCP activity induces apoptosis. Human Jurkat T cells were treated with 30 μM Compound A for 4 h. […] Both the p112 and p115 forms of RB as p112-115/RB were combined and used as an apoptosis marker.
The ability of these three MCP inhibitors to induce changes in PARP and RB proteins in a parallel experiment was also investigated. […] This rank corresponded exactly to that of the three compounds for inhibition of the chymotrypsin-like activity in isolated proteasomes (Iqbal, M., et al. J. Med Chem. 38: 2276-2277, 1995; Iqbal, M., et al. Bioorg. Med. Chem. Lett. 6: 287-290, 1996) and in intact murine B cells (Harding, C. V., et al. J Immuno. 155: 1767-1775, 1995).

[5] = system: osteosarcoma cell line U2OS; experiment: Detachment and apoptosis in U2OS cells; format: cell-based, human; settings: U2OS (data not shown)
Method: as §1, §2

human Jurkat T cells = experiment: Apoptosis in Jurkat T cells (flow cytometry sub-G1 DNA content, DNA fragmentation); format: cell-based; settings: Jurkat T cells
Method: as §1, §2, §4
When human Jurkat T cells were treated with 15 μM Compound A for 8 h, there was a 23% increase in the apoptotic population with sub-G1 DNA content (FIG. 2, panels b vs. a). By comparison, when Compound B was used, only an 8%-increase in sub-G1 population was detected (FIG. 2, panels c vs. a).

[6] = system: human leukemia HL-60 cells; experiment: Apoptosis in HL-60 cells (DNA fragmentation, PARP cleavage); format: cell-based; settings: 30 μM, 3-4 h
Method: as §2, §3
Example 1 was designed to determine if MCP is involved in the survival signaling pathway(s) and if inhibition of MCP activity induces apoptosis. Human Jurkat T cells were treated with 30 μM Compound A for 4 h. […]

[7] = biological target: MCP chymotrypsin-like activity (Homo sapiens, UniProt P28074); experiment: Inhibition of MCP chymotrypsin-like activity; format: biochemical

For `CC(C)C[C@@H](C=O)NC(=O)[C@@H](CCCNC(=N)N[N+](=O)[O-])NC(=O)C(CCCCCCCCN1C(=O)c2ccccc2C1=O)C1CCCC1` (some centres unmarked) [Compound A], the “Apoptosis by nuclear staining” value [1] was “apoptotic morphology in all of the detached and most of the attached cells”, the Detached cells [1] was “at least half” and the p27 levels [2] was “increased only slightly”. The “Detachment and apoptotic nuclear changes” value ([3]; normal WI-38, 10 μM, up to 22 h) was “did not induce either detachment or apoptotic nuclear morphology”, the PARP cleavage ([3]; normal WI-38, total cell population) was “not in the normal” and the “Production of p85/PARP and p112-115/RB” value ([4]; Jurkat T cells, 15 μM, time course up to 24 h) was “production of p85/PARP and p 112-115/RB were observed after 2 h”. The “Cleavage of PARP to p85 and RB to p68” value ([4]; Jurkat T cells, 30 μM, 4 h) was “induced cleavage of PARP to a p85 fragment”, the “Processing of caspase-3” value ([4]; Jurkat T cells, 30 μM, 4 h) was “induced processing of caspase-3” and the “Cleavage of PARP” value ([4]; Jurkat cells, 30 μM, 3-4 h) was “complete cleavage of PARP”. The “Induction of cellular detachment and apoptosis” value [5] was “induced cellular detachment and apoptosis”, the “Increase in the apoptotic population with sub-G1 DNA content” value (human Jurkat T cells; 15 μM, 8 h) was 23% and the “Induction of apoptosis (sub-G1 DNA content, nuclear condensation/fragmentation, internucleosomal DNA fragmentation)” value (human Jurkat T cells; 30 μM, 4 h) was “apoptosis occurred”. For the same compound, the “Cleavage of PARP” value [6] was “complete cleavage of PARP” and the pIC50 [7] was 8.70.
